In patent publication US10385011B2, “Benzoic acid amide compound” (AMOREPACIFIC CORPORATION, priority 2015, dated 2019) one finds IC50 data, which are given here for ten compounds.

This experiment deals with Mouse-derived B16F10 melanoma cells. In words: Effect of reducing melanin production in melanocytes (Dooley's method). The format is cell-based. As to conditions: B16-F10, 120 h, medium with compound replaced for three consecutive days, melanin extracted after 5 days, absorbance at 405 nm, read-out: IC50, concentration required to inhibit melanin production in melanocytes to half. The protocol: The effect of inhibiting melanin production of the benzoic acid amide derivative compounds prepared in Examples in melanocytes was measured according to the Dooley's method. Mouse-derived B16F10 melanoma cells acquired from the Korean Cell Line Bank were used as cell lines. DMEM (Cat No. 11995), FBS (Cat No. 16000-044), and antibiotic-antifungal agents (Cat No. 15240-062) necessary for cell culturing were purchased from Invitrogen (GIBCO). The cell lines were cultured under the condition of 37° C. and 5% CO2. The cultured B16F10 cells were detached using 0.05% trypsin-EDTA and inoculated onto a 48-well plate with the same cell number (1×10^4 cells/well). From the next day, the culture medium was replaced with one containing 10 ppm of each compound of Examples for three consecutive days. […] After 5 days, melanin was melted and extracted from the cells by treating with 1 N NaOH at 60° C. for 2 hours, which was quantitated by measuring absorbance at 405 nm. The concentrations (IC50) of Examples required to inhibit melanin production in melanocytes to half were calculated and are given in the following Table 1.

Turning to `COc1cc(OC)c(-c2ccc3c(c2)OCO3)cc1C(=O)NCc1ccc(O)cc1O` [Example 7, 5-benzo[1,3]dioxol-5-yl-N-(2,4-dihydroxy-benzyl)-2,4-dimethoxy-benzoic Acid Amide], the IC50 turned out to be 700 nM.
For the compound `COc1cc(OC)c(-c2cc(C)cc(C)c2)cc1C(=O)NCc1ccc(O)cc1O` [Example 8, N-(2,4-dihydroxy-benzyl)-2,4-dimethoxy-5-(3,5-dimethyl-phenyl) Benzoic Acid Amide], the IC50 was determined as 1500 nM.
On to `COc1cc(OC)c(-c2cccc([N+](=O)[O-])c2)cc1C(=O)NCc1ccc(O)cc1O` [Example 10, N-(2,4-dihydroxy-benzyl)-2,4-dimethoxy-5-(3-nitro-phenyl) Benzoic Acid Amide], for which the IC50 worked out at 1300 nM.
With `COc1ccc(-c2cc(C(=O)NCc3ccc(O)cc3O)c(OC)cc2OC)cc1` [Example 5, N-(2,4-dihydroxy-benzyl)-2,4-dimethoxy-5-(4-methoxy-phenyl) Benzoic Acid Amide] the figure was 700 nM; with `COc1cc(OC)c(C2=CCCCC2)cc1C(=O)NCc1ccc(O)cc1O` [Example 11, 5-cyclohexene-1-yl-N-(2,4-dihydroxy-benzyl)-2,4-dimethoxy-benzoic Acid Amide], 900 nM; with `COc1cc(OC)c(-c2ccc(F)c(F)c2)cc1C(=O)NCc1ccc(O)cc1O` [Example 9, N-(2,4-dihydroxy-benzyl)-2,4-dimethoxy-5-(3,4-difluoro-phenyl) Benzoic Acid Amide], 600 nM.
On to `COc1cc(OC)c(C2CCCCC2)cc1C(=O)NCc1ccc(O)cc1O` [Example 12, 5-cyclohexyl-N-(2,4-dihydroxy-benzyl)-2,4-dimethoxy-benzoic Acid Amide], for which the IC50 was found to be 2100 nM.
On to `COc1cc(OC)c(-c2ccc(F)cc2)cc1C(=O)NCc1ccc(O)cc1O` [Example 6, N-(2,4-dihydroxy-benzyl)-2,4-dimethoxy-5-(4-fluoro-phenyl)-benzoic Acid Amide], for which the IC50 turned out to be 700 nM.
In the case of `CCCCc1ccc(O)cc1O` [Rucinol, reference compound], the IC50 turned out to be 800 nM.
`COc1cc(OC)c(C(C)(C)C)cc1C(=O)NCc1ccc(O)cc1O` [Example 1, 5-tert-butyl-N-(2,4-dihydroxy-benzyl)-2,4-dimethoxy-benzoic Acid Amide]: the IC50 amounted to 2300 nM.
